Read-outs that look alike come from different tables or passages of the source. A value given as a limit tells only on which side of the number the result lay.

Data on 13 compounds can be found in US6413607B1, “Cyanine dyes” (Kabushiki Kaisha Hayashibara Seibutsu Kagaku Kenkyujo, priority 1999, dated 2002).

Holding throughout (format): physicochemical
A short description of series [1]: Light characteristics: visible absorption spectrum in methanol and as thin layer over glass. The following applies: for Maximum absorption (nm) CH3OH: dissolved in methanol; for Maximum absorption (nm) Thin Layer: formed into layer over glass; for Shift of absorption maximum compared with conventional related compounds: thin layer, in words. The procedure: The cyanine dyes as listed in Table 1 of the present invention and known compounds represented by Chemical Formulae 33 and 34 as controls were measured for visible absorption spectrum when dissolved in methanol and formed into layers over glasses.

Series [2] in a line: Solubility of cyanine dye in TFP. The conditions noted are these: in TFP at 20° C. The procedure: For the cyanine dyes in Table 1, they were measured for solubility in TFP at 20° C.
When coating over the substrates for optical recording media, the cyanine dyes are generally prepared into 0.1-10 w/w % solutions.

A short description of series [3]: Decomposition point by DTA and TGA. The conditions noted are these: for Rapidity of decomposition among Chemical Formulae 1, 4 and 6 to 8 / Decomposability at temperatures around decomposition point: in words; for Decomposition point (° C.): temperature increase 10° C./min. An excerpt:
An adequate amount of either of the cyanine dyes in Table 1 as a test specimen was placed in a vessel and subjected to conventional differential thermal analysis (hereinafter abbreviated as “DTA”) and thermogravimetric analysis (hereinafter abbreviated as “TGA”) using “MODEL TG/DTA 220”, a digital thermo analyzer commercialized by Seiko Instruments Inc., Tokyo, Japan, to determine the melting point, i.e., a temperature at which the cyanine dyes as test specimens begin to absorb heat on […], and to determine the decomposition point, i.e., a temperature at which the cyanine dyes as test specimens begin to lose weight on […]. In parallel, conventional related compounds represented by Chemical Formulae 33 and 34 were analyzed similarly as above. FIGS. 2 and 3 are respectively the results of the cyanine dye represented by Chemical Formula 4 of the present invention and conventional related compound represented by Chemical Formula 34. In DTA and TGA, the environmental temperature was set to an increasing temperature mode at a rate of 10° C./min.
As evident from Table 1 and FIGS. 2 and 3, all the conventional related compounds had melting points and decomposition points which were different from each other, and very slowly decomposed at temperatures around their decomposition points. […] Most specifically, conventional known compounds had both melting points and decomposition points which were different from each other, i.e., the difference ranged from 17 to 108° C., while most of the cyanine dyes of the present invention had decomposition points which were undistinguishable from their melting points or had only the decomposition points.

The nature of series [4]: Decomposition rate: differential calorimetric curve (DSC), half value width. The following applies: for Calorific value / Decomposition initiating point / Decomposition peak point / Half value width: DSC, 10° C./min; for Calorific value / Decomposition initiating point / Decomposition peak point: nitrogen atmosphere; for Half value width: width of decomposition peak at half calorific value, nitrogen. How it is done:
For the cyanine dyes represented by Chemical Formulae 4, 6 and 8 of the present invention, they were in a usual manner examined for differential calorimetric curve when heated under an increasing temperature rate of 10° C./min and nitrogen atmospheric conditions using “MODEL DSC220U”, a digital thermo analyzer commercialized by Seiko Instruments Inc., Tokyo, Japan. In parallel, conventional cyanine dye represented by Chemical Formula 33 was examined for differential calorimetric curve similarly as above. FIGS. 4 and 5 are respectively differential calorimetric curves for the cyanine dyes represented by Chemical Formulae 4 and 33.
Based on the results of the differential calorimetric curves, the half calorific vallues at descomposition peaks for each cyanine dyes were determined, and the thermal difference between the two points, having the determined half calorific values at both ends of each descomposition peaks (hereinafter designated as “a half value width”), was determined.
As evident from the results in Table 2 and FIGS. 4 and 5, the cyanine dyes of the present invention instantly and promptly decomposed in spite of their substantially the same calorific-values as compared with conventional one. […] Similarly as in conventional related compounds represented by Formulae 33 and 34, dyes with a relatively-slow decomposition rate are substantially difficult to form stable minute pits at a relatively-high density on a restricted recording surface of high-density optical recording media such as DVD-Rs, as mentioned above. Varying depending on glass transition temperature of substrate, when used as a light absorbent in optical recording media, dyes with a lower decomposition point can be generally used to write information by using a lower-power laser beam as a merit, however, as a demerit, when exposed to laser beam for a relatively-long period of time on reading, the dyes tend to accumulate heat and deform parts around pits and other parts free of pit on recording surfaces, resulting in large jitters and reading errors. The cyanine dyes of the present invention substantially absorb a visible light with a wavelength around 650 nm when formed into a thin layer, have decomposition points which are undistinguishable from their melting points or only have the decomposition points of relatively-high temperatures, and have an outstandingly-high decomposition rate at around the decomposition points. These characteristics mean that high-density optical recording media, having a relatively-small jitter, insubstantial reading error, and satisfactory stability of exposure to environmental light such as reading light and natural light, can be obtained by using the cyanine dyes of the present invention as light absorbents. The reason of why the half value width was employed as an index for the decomposability in this example was due to the fact that it can effectively evaluate the decomposition rate of test specimens.

Consider `CCN1C(=CC=CC2=[N+](CC)c3ccc(S(=O)(=O)N(CC)CC)cc3C2(C)C)C(C)(C)c2c1ccc1ccccc21.[O-][Cl+3]([O-])([O-])[O-]` [Chemical Formula 27], for which, in series [1], the “Maximum absorption (nm) CH3OH” value was found to be 571 nm and the “Maximum absorption (nm) Thin Layer” value was 592 nm. Also, the “Solubility” value in series [2] was over 200 mg/mL.
As to `CCCN1C(=CC=CC2=[N+](CCC)c3ccc([N+](=O)[O-])cc3C2(C)C)C(C)(C)c2c1ccc1ccccc21.[O-][Cl+3]([O-])([O-])[O-]` [Chemical Formula 6], in series [1], the “Maximum absorption (nm) CH3OH” value is listed as 578 nm, the “Maximum absorption (nm) Thin Layer” value came to 609 nm and the “Shift of absorption maximum compared with conventional related compounds” value (“Shift of absorption maximum” below) is recorded as “shifted their absorption maxima to longer wavelengths by a large margin”. In addition, the “Solubility” value in series [2] worked out at 164 mg/mL. Also, the “Rapidity of decomposition among Chemical Formulae 1, 4 and 6 to 8” value (shortened to “Rapidity”) in series [3] was “decomposed most rapidly”. Further, in series [4], the Calorific value turned out to be 1827 mJ/mg, the Decomposition initiating point was 279.5 °C, the Decomposition peak point amounted to 285.5 °C and the Half value width is 13.2 °C.
For `CCN1C(=CC=CC2=[N+](CC)c3ccc([N+](=O)[O-])cc3C2(C)C)C(C)(C)c2ccc3ccccc3c21.[O-][Cl+3]([O-])([O-])[O-]` [Chemical Formula 15], in series [1], the “Maximum absorption (nm) CH3OH” value is 562 nm, the “Maximum absorption (nm) Thin Layer” value came to 617 nm and the “Shift of absorption maximum” value was “shifted their absorption maxima to longer wavelengths by a large margin”. In series [2], the “Solubility” value is 229 mg/mL. Besides, in series [3], the “Decomposition point (° C.)” value is 270.7 °C.
As for `CN1C(=CC=CC2=[N+](C)c3ccc([N+](=O)[O-])cc3C2(C)C)C(C)(C)c2c1ccc1ccccc21` [Chemical Formula 1], in series [1], the “Maximum absorption (nm) CH3OH” value is given as 573 nm, the “Maximum absorption (nm) Thin Layer” value was 609 nm and the “Shift of absorption maximum” value is reported as “shifted their absorption maxima to longer wavelengths by a large margin”. In series [2] (organic solvent or mixture, read-out: Solubility), the Solubility worked out at 36 mg/mL. In addition, in series [3], the “Decomposability at temperatures around decomposition point” value is listed as “instantly decomposed at once”; the “Rapidity” value is recorded as “decomposed most rapidly”.
Regarding `CCCCN1/C(=C/C=C/C2=[N+](CCCC)c3ccc(C)cc3C2(C)C)C(C)(C)c2c1ccc1ccccc21` [Chemical Formula 34, reference compound], in series [1], the “Maximum absorption (nm) CH3OH” value is 574 nm and the “Maximum absorption (nm) Thin Layer” value worked out at 599 nm. In addition, in series [3], the “Decomposition point (° C.)” value amounted to 267 °C.
Turning to `CCCCN1C(=CC=CC2=[N+](C)c3ccc(S(=O)(=O)N(CC)CC)cc3C2(C)C)C(C)(C)c2c1ccc1ccccc21.CCN(CC)c1ccc2c(c1)[O][Co-]1([O]c3ccc([N+](=O)[O-])cc3N=N2)[O]c2ccc([N+](=O)[O-])cc2N=Nc2ccc(N(CC)CC)cc2[O]1` [Chemical Formula 24], in series [1], the “Maximum absorption (nm) CH3OH” value was 538 nm and the “Maximum absorption (nm) Thin Layer” value is given as 556 nm. Besides, in series [2], the “Solubility” value worked out at 197 mg/mL.
Regarding `CCCCN1/C(=C/C=C/C2=[N+](CCCC)c3ccccc3C2(C)C)C(C)(C)c2c1ccc1ccccc21` [Chemical Formula 33, reference compound], in series [1], the “Maximum absorption (nm) CH3OH” value stood at 568 nm and the “Maximum absorption (nm) Thin Layer” value is listed as 600 nm. In addition, in series [3], the “Decomposition point (° C.)” value amounted to 268.1 °C. Also, in series [4], the Calorific value turned out to be 1467 mJ/mg, the Decomposition initiating point turned out to be 255.4 °C, the Decomposition peak point was 297.4 °C and the Half value width was determined as 49.9 °C.
For `CCCCN1C(=CC=CC2=[N+](CCC)c3ccc([N+](=O)[O-])cc3C2(C)C)C(C)(C)c2c1ccc1ccccc21.[O-][Cl+3]([O-])([O-])[O-]` [Chemical Formula 7], in series [1], the “Maximum absorption (nm) CH3OH” value turned out to be 577 nm, the “Maximum absorption (nm) Thin Layer” value stood at 609 nm and the “Shift of absorption maximum” value is reported as “shifted their absorption maxima to longer wavelengths by a large margin”. The “Solubility” value in series [2] was 210 mg/mL. Moreover, in series [3], the “Rapidity” value is on record as “decomposed most rapidly”; the “Decomposition point (° C.)” value was 261.2 °C.
On to `CCCCN1C(=CC=CC2=[N+](C)c3ccc(S(=O)(=O)N(CC)CC)cc3C2(C)C)C(C)(C)c2c1ccc1ccccc21.F[P-](F)(F)(F)(F)F` [Chemical Formula 23], for which, in series [1], the “Maximum absorption (nm) CH3OH” value is 591 nm and the “Maximum absorption (nm) Thin Layer” value is 591 nm. In addition, the “Solubility” value in series [2] is over 200 mg/mL. The “Decomposition point (° C.)” value in series [3] is 273.5 °C.
`CCN1C(=CC=CC2=[N+](CC)c3ccc([N+](=O)[O-])cc3C2(C)C)C(C)(C)c2c1ccc1ccccc21.[O-][Cl+3]([O-])([O-])[O-]` [Chemical Formula 4]: in series [1], the “Maximum absorption (nm) CH3OH” value worked out at 576 nm, the “Maximum absorption (nm) Thin Layer” value amounted to 609 nm and the “Shift of absorption maximum” value is “shifted their absorption maxima to longer wavelengths by a large margin”. For the same compound, in series [2], the “Solubility” value worked out at 126 mg/mL. Moreover, in series [3], the “Decomposability at temperatures around decomposition point” value is listed as “instantly decomposed at once”; the “Rapidity” value is listed as “decomposed most rapidly”. In series [4], this compound registered a Calorific value of 1826 mJ/mg, a Decomposition initiating point of 295.8 °C, a Decomposition peak point of 298.6 °C and a Half value width of 7.7 °C. The “Half value width as level of that of conventional cyanine dye” value in series [4] (relative to Chemical Formula 33) was “⅙”.
`CCCCN1C(=CC=CC2=[N+](CCCC)c3ccc([N+](=O)[O-])cc3C2(C)C)C(C)(C)c2c1ccc1ccccc21.[O-][Cl+3]([O-])([O-])[O-]` [Chemical Formula 8]: in series [1], the “Maximum absorption (nm) CH3OH” value worked out at 577 nm, the “Maximum absorption (nm) Thin Layer” value was 609 nm and the “Shift of absorption maximum” value is given as “shifted their absorption maxima to longer wavelengths by a large margin”. Further, the “Solubility” value in series [2] was 245 mg/mL. Besides, the “Decomposition point (° C.)” value in series [3] turned out to be 262.4 °C. In series [4], this compound showed a Calorific value of 1663 mJ/mg, a Decomposition initiating point of 249.9 °C, a Decomposition peak point of 273.5 °C and a Half value width of 32.2 °C.
Regarding `CCCCN1C(=CC=CC2=[N+](C)c3ccc([N+](=O)[O-])cc3C2(C)C)C(C)(C)c2c1ccc1ccccc21.CCN(CC)c1ccc2c(c1)[O][Co-]1([O]c3ccc([N+](=O)[O-])cc3N=N2)[O]c2ccc([N+](=O)[O-])cc2N=Nc2ccc(N(CC)CC)cc2[O]1` [Chemical Formula 3], in series [1], the “Maximum absorption (nm) CH3OH” value worked out at 540 nm and the “Maximum absorption (nm) Thin Layer” value is on record as 557 nm. Besides, in series [2], the “Solubility” value is 22 mg/mL. For the same compound, the “Decomposition point (° C.)” value in series [3] amounted to 271.3 °C.
Consider `CCCCN1C(=CC=CC2=[N+](C)c3ccc(S(=O)(=O)N(CC)CC)cc3C2(C)C)C(C)(C)c2c1ccc1ccccc21.O=[N+]([O-])c1ccc2c(c1)N=Nc1c(ccc3ccccc13)[O][Ni-]1([O]2)[O]c2ccc([N+](=O)[O-])cc2N=Nc2c(ccc3ccccc23)[O]1` [Chemical Formula 26], for which, in series [1], the “Maximum absorption (nm) CH3OH” value is given as 570 nm and the “Maximum absorption (nm) Thin Layer” value was determined as 594 nm. The “Solubility” value in series [2] worked out at 127 mg/mL. Also, the “Decomposition point (° C.)” value in series [3] is 257.3 °C.

For orientation: Solubility means how much of the substance goes into solution per volume.
